Results taken from patent US5360803A, “Composition and method for treating cancer” (Dan Farber Cancer Institute, priority 1992, dated 1994).
Where two headings read alike, the source gives them in different places.

What was measured:
[1] = tested on: human colon carcinoma CX-1; experiment: anti-human colon carcinoma CX-1 activity using nude mice; type: in vivo, Swiss nu/nu mice (human tumor)
Text: Human colon carcinoma cell line CX-1 has been chosen by the National Cancer Institute as a mode for cancer drug screening (NCI Protocol 3C2H2). It was established in culture from the surgical explant of the primary colon adenocarcinoma of a person with no previous chemotherapy. The cultured CX-1 cells, upon subcutaneous injection, can grow readily in nude mice as a moderately- to well-differentiated human colon carcinoma. CEA is expressed as expected for differentiated colon carcinoma cells. Abundant keratin, consistent with epithelial origin, is present. Increased uptake and prolonged retention of delocalized lipophilic cations are observed.
Swiss nu/nu mice obtained from Taconic Farm were housed in a pathogen-free environment. Tumors subcutaneously passaged in nude mice were excised under sterile conditions and converted to a single cell suspension using a metal grid with a 0.4 mm mesh. Red blood cells were lysed by incubation with 0.17M ammonium chloride at 4° C. for 20 minutes. Cells were scored for viability with trypan blue. Viable CX-1 cells (2.5 million) made up in 0.1 ml of […]. The mice were randomly allocated into a control group (five mice) and a treatment group (five mice per group). The drug treatment was commenced the next day. Doses and schedules were developed empirically and were based mainly on information on LD50 and LD1O obtained from preliminary toxicity studies. The control group received an equivalent volume of hydroxypropyl-β-cyclodextrin-5% glucose solution.
The pharmaceutical compositions tested comprised solutions in 5% glucose subjected to sonication at concentrations of 1 mg/ml. Those compounds which were not completely dissolved by this procedure were dissolved hydroxypropyl-β-cyclodextrin using the following method. Hydroxypropyl-β-cyclodextrin (45 g) was mixed with 100 ml of sterilized, double distilled water and stirred for four hours. Each of the compounds to be tested (20 mg) was mixed with 10 ml of hydroxypropyl-β-cyclodextrin solution and sonicated for 60 minutes in the dark. This solution was then diluted in 5% glucose to yield a final compound concentration of 0.5 mg/ml, and further sonicated for 60 minutes in the dark to assure that the compound was completely dissolved.
When the growth of tumors in the control group reached the exponential phase and the size of the tumor was palpable (usually 20 to 30 days after tumor implantation), the experiments were terminated. Tumors in each mouse were excised and weighed using an analytical balance. Total tumor weight in each group from five mice was calculated. Per cent tumor inhibition between the treated group and the control group was then calculated for each group.

[2] = tested on: CX-1 cells; experiment: selective killing assay, colony number reduced to 50% of control, human colon carcinoma cell line CX-1; type: cell-based; settings: for Selectivity (ratio of IC50 for CV-1 and IC50 for CX-1): CV-1/CX-1; for CX-1 (IC50) / IC50: human colon carcinoma, 24 hours treatment, colony count after 7 to 10 days;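 on all read-outs here: colonies stained with crystal violet and counted, control cells given medium alone, exposure at 37 °C, normal monkey kidney epithelial CV-1 cells as the non-cancer comparator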
[3] = tested on: CV-1 cells; experiment: selective killing assay, colony number reduced to 50% of control, normal monkey kidney epithelial cell line CV-1; type: cell-based; settings: 24 hours treatment; for IC50: Primates
Text: (§1) The control received culture media only.

[4] = tested on: human melanoma LOX; experiment: survival of nude mice implanted with human melanoma LOX; type: in vivo, male athymic Swiss nu/nu mouse (human tumor); settings: for response vs control in vivo at 5 mg/kg: Mus musculus, ip, read-out: T/C; for T/C: 5 mg/kg i.p. on day 1, 4, 8, 11, 15, 18
[5] = tested on: LOX cells; experiment: colony assay of Example 1 with human melanoma LOX cell line; type: cell-based; settings: for Selectivity: CV-1/LOX; for LOX(IC50) / IC50: Table V, human melanoma, 24 hours treatment; for IC50: LOX;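 on all read-outs here: colony formation assay with 24 h exposure at 37 °C, then 7 to 10 days of regrowth, crystal violet staining of colonies, control wells given medium alone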
Procedure: (§2) Human colon carcinoma cell line CX-1 or normal monkey kidney epithelial cell line CV-1 was chosen as representatives of cancer cells and normal cells, respectively. […] CX-1 cells (2,000 cells/well) and CV-1 cells (1,000 cells/well) were plated in 24-well plastic culture plates. […] The control received culture media only. Cells were treated with compounds of General Formulas (I) to (V) at 37° C. for 24 hours. After rinsing with fresh culture medium three times, the cells were further incubated at 37° C. for 7 to 10 days. Cell colonies were fixed and stained with 2% crystal violet in 70% ethanol for 10 minutes and rinsed in water. […] The selectivity is defined as the ratio of IC50 for CV-1 and IC50 for CX-1.

[6] = tested on: CRL 1420 cells; experiment: colony assay of Example 1 with human pancreatic carcinoma CRL 1420 cell line; type: cell-based; settings: for Selectivity: CV-1/CRL-1420; for CRL-1420(IC50) / IC50: Table VII, human pancreatic carcinoma, 24 hours treatment;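 on all read-outs here: colony formation assay, cells exposed for 24 h then regrown 7 to 10 days without compound, colonies stained with crystal violet, control given medium alone, normal reference CV-1 monkey kidney epithelial cells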
[7] = tested on: EJ cells; experiment: colony assay of Example 1 with human bladder carcinoma EJ cell line; type: cell-based; settings: for Selectivity: CV-1/EJ; for EJ (IC50) / IC50: Table IV, human bladder carcinoma, 24 hours treatment; for IC50: EJ;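 on all read-outs here: colony formation assay with 24 h compound exposure at 37 °C, then 7–10 days drug-free regrowth, colonies stained with crystal violet, controls given medium alone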
Procedure: as §2

[8] = tested on: MCF-7 cells; experiment: colony assay of Example 1 with human breast carcinoma MCF-7 cell line; type: cell-based; settings: for Selectivity: CV-1/MCF-7; for IC50: Table VI, human breast carcinoma, 24 hours treatment
Text: as §1

[9] = Table III, normal monkey kidney epithelial cells, colony count after 7 to 10 days
[10] = CV-1, Table III, normal monkey kidney epithelial cells, colony count after 7 to 10 days
[11] = Mus musculus, ip, 24 h, 5 mg/kg i.p. on day 1, 9, 13, read-out: Tumor Inhibition
[12] = Mus musculus, ip, 24 h, 5 mg/kg i.p. on day 1, 5, 8, 11, read-out: Tumor Inhibition

| Compound | Selectivity (ratio of IC50 for CV-1 and IC50 for CX-1) [2] | CX-1 (IC50) ([2]; Table III) [µg/mL] | CV-1 (IC50) [3, 9] [µg/mL] | IC50 ([2]; Homo sapiens, CX-1, Table III) [µg/mL] | IC50 [3, 10] [µg/mL] | Selectivity [5] | LOX(IC50) [5] [µg/mL] | Selectivity [6] | CRL-1420(IC50) [6] [µg/mL] | Selectivity [7] | IC50 ([3]; CV-1, 24 h, Table IV) [µg/mL] | IC50 ([3]; CV-1, 24 h, Table VII) [µg/mL] | IC50 ([5]; Homo sapiens, 24 h) [µg/mL] | Selectivity [8] | IC50 ([3]; CV-1, 24 h, Table V) [µg/mL] | other results |
| --- | --- | --- | --- | --- | --- | --- | --- | --- | --- | --- | --- | --- | --- | --- | --- | --- |
| CCn1c(=Cc2oc3ccccc3[n+]2CC)sc(=C2Sc3ccccc3N2C)c1=O [Compound 28] | 175 | 0.04 | 7 |  |  |  |  |  |  |  |  |  |  |  |  | inhibition in vivo at 5 mg/kg ([1]; Mus musculus, ip, 24 h, 5 mg/kg i.p. on day 1, 4, 8, 12, 16, 21, read-out: Tumor Inhibition): 68.8% |
| CN1C(=c2sc(=Cc3oc4ccccc4[n+]3C)n(C)c2=O)Sc2ccccc21 [Compound 57] | 120 |  | 6 | 0.05 |  |  |  |  |  |  |  |  |  |  |  | inhibition in vivo at 10 mg/kg ([1]; Mus musculus, ip, 24 h, 10 mg/kg i.p. on day 1, 2, 5, 6, 7, 8, read-out: Tumor Inhibition): 66.3%; response vs control in vivo at 5 mg/kg ([4]; 24 h, 5 mg/kg i.p. on day 1, 2, 3, 6, 7, 8, 9, 10, 14): 163% |
| CC[n+]1c(C=c2sc(=C3Sc4ccccc4N3C)c(=O)n2-c2ccccc2)sc2ccccc21 [Compound 7] | 300 |  |  | 0.005 | 1.5 |  |  |  |  |  |  |  |  |  |  | inhibition in vivo at 5 mg/kg ([1]; Mus musculus, ip, 24 h, 5 mg/kg i.p. on day 1, 5, 7, read-out: Tumor Inhibition): 42%; response vs control in vivo at 5 mg/kg ([4]; 24 h, 5 mg/kg i.p. on day 1, 4, 8, 12): 182% |
| CCn1c(=Cc2oc3ccccc3[n+]2C)sc(=C2Sc3ccccc3N2C)c1=O [Compound 13] | > 667 | 0.03 | > 20 |  |  | > 222 | 0.09 | > 400 | 0.05 | 222 |  |  |  |  |  | inhibition in vivo at 20 mg/kg ([1]; Mus musculus, ip, 24 h, 20 mg/kg i.p. on day 1, 5, 8, 12, 15, 19, read-out: Tumor Inhibition): 87.7%; EJ (IC50) [7]: 0.09 µg/mL; CV-1 (IC50) ([3]; Table IV): 20 µg/mL; CV-1 (IC50) ([3]; Table V): > 20 µg/mL; CV-1 (IC50) ([3]; Table VII): > 20 µg/mL; response vs control in vivo at 5 mg/kg ([4]; 24 h, 5 mg/kg i.p. on day 1, 4, 8, 11): 147% |
| CCn1c(=Cc2oc3ccccc3[n+]2C)sc(=C2Sc3ccccc3N2C)c1=O [Compound 9] | 500 | 0.04 |  |  |  | > 300 | 0.1 | 222 | 0.09 | 400 | 20 | 20 |  |  |  | inhibition in vivo at 5 mg/kg [1, 11]: 45.2%; EJ (IC50) [7]: 0.05 µg/mL; CV-1 (IC50) ([3]; Table V): > 30 µg/mL; T/C [4]: 142% |
| CCn1c(=Cc2oc3ccc(-c4ccccc4)cc3[n+]2CC)sc(=C2Sc3ccccc3N2C)c1=O [Compound 203] |  |  |  |  |  |  |  |  |  |  |  |  |  |  |  | inhibition in vivo at 5 mg/kg [1, 12]: 71.9%; response vs control in vivo at 5 mg/kg ([4]; 24 h, 5 mg/kg i.p. on day 1, 5, 9, 13): 139% |
| CCn1c(=C2CCC[n+]3c2sc2ccccc23)sc(=C2Sc3ccccc3N2C)c1=O [Compound 39] | 500 |  |  | 0.04 | 20 | 666 |  | 400 |  | 500 | 20 | 20 | 0.03 | 222 | 20 | inhibition in vivo at 5 mg/kg [1, 12]: 74.9%; IC50 ([6]; Homo sapiens, 24 h): 0.05 µg/mL; IC50 ([7]; Homo sapiens, 24 h): 0.04 µg/mL; IC50 ([8]; Homo sapiens, MCF7, 24 h): 0.09 µg/mL; IC50 ([3]; CV-1, 24 h, Table VI): 20 µg/mL; response vs control in vivo at 5 mg/kg ([4]; 24 h, 5 mg/kg i.p. on day 1, 4, 11, 15, 18): 154% |
| CCN1C(=c2sc(=Cc3oc4ccccc4[n+]3CC)n(CC)c2=O)Sc2ccccc21 [Compound 19] | 500 |  |  | 0.02 | 10 | > 200 |  | 111 |  | 200 | 20 | 10 | < 0.1 | 167 | 20 | inhibition in vivo at 5 mg/kg [1, 11]: 60.4%; IC50 ([6]; Homo sapiens, 24 h): 0.09 µg/mL; IC50 ([7]; Homo sapiens, 24 h): 0.1 µg/mL; IC50 ([8]; Homo sapiens, MCF7, 24 h): 0.06 µg/mL; IC50 ([3]; CV-1, 24 h, Table VI): 10 µg/mL |
| CCn1c(=Cc2oc3ccccc3[n+]2C)sc(=C2Sc3ccccc3N2C)c1=O [Compound 10] | 500 | 0.04 | 20 |  |  | > 300 | 0.1 | 250 | 0.08 |  |  |  |  |  |  | Tumor Inhibition ([1]; 5 mg/kg i.p. on day 1, 5, 9, 13): 66.0%; CV-1 (IC50) ([3]; Table V): > 30 µg/mL; CV-1 (IC50) ([3]; Table VII): 20 µg/mL; T/C [4]: 171% |
| CCn1c(=Cc2ccc3ccccc3[n+]2CC)sc(=C2Sc3ccccc3N2C)c1=O [Compound 21] | 800 | 0.01 |  |  |  | 261 |  | 261 |  | 364 | 8 | 8 | 0.03 |  | 8 | inhibition in vivo at 2.5 mg/kg ([1]; Mus musculus, ip, 24 h, 2.5 mg/kg i.p. on day 1, 5, 8, 12, read-out: Tumor Inhibition): 50.2%; IC50 ([6]; Homo sapiens, 24 h): 0.03 µg/mL; IC50 ([7]; Homo sapiens, 24 h): 0.022 µg/mL; response vs control in vivo at 5 mg/kg ([4]; 5 mg/kg i.p. on day 1, 2.5 mg/kg on day 5, 8): 133% |
| CCn1c(=Cc2oc3ccccc3[n+]2C)sc(=C2Sc3ccccc3N2C)c1=O [Compound 26] | 500 | 0.04 |  |  |  | 400 | 0.05 | 500 | 0.04 | 400 |  |  |  | 333 |  | inhibition in vivo at 5 mg/kg [1, 12]: 53.6%; EJ (IC50) [7]: 0.05 µg/mL; IC50 ([8]; Homo sapiens, MCF7, 24 h): 0.06 µg/mL; IC50 ([3]; CV-1, 24 h, Table VI): 20 µg/mL |
| CCn1c(=Cc2oc3ccccc3[n+]2C)sc(=C2Sc3ccccc3N2C)c1=O [Compound 8] | 500 |  |  | 0.04 |  | > 200 |  |  |  |  |  |  | < 0.1 |  | 20 | inhibition in vivo at 5 mg/kg ([1]; Mus musculus, ip, 24 h, 5 mg/kg i.p. on day 1, 5, 9, 13, read-out: Tumor Inhibition): 55.1%; response vs control in vivo at 5 mg/kg ([4]; 24 h, 5 mg/kg i.p. on day 1, 4, 8, 11, 15): 142% |
| CCn1c(=Cc2[se]c3ccccc3[n+]2CC)sc(=C2Sc3ccccc3N2C)c1=O [Compound 27] | 667 |  |  |  | 20 | 1333 |  | 1333 |  | 1000 |  |  |  | 333 |  | IC50 [5]: 0.015 µg/mL; inhibition in vivo at 2.5 mg/kg ([1]; Mus musculus, ip, 24 h, read-out: Tumor Inhibition): 40.9%; IC50 [6]: 0.015 µg/mL; IC50 ([2]; CX-1, Table III): 0.03 µg/mL; IC50 [7]: 0.02 µg/mL; IC50 ([8]; MCF7): 0.06 µg/mL; IC50 ([3]; CV-1, Table IV): 20 µg/mL; IC50 ([3]; CV-1, Table V): 20 µg/mL |
